Source: ChEMBL document CHEMBL1255197, “Surface plasmon resonance biosensor based fragment screening using acetylcholine binding protein identifies ligand efficiency hot spots (LE hot spots) by deconstruction of nicotinic acetylcholine receptor α7 ligands” (J Med Chem, 2010)

Assays:
[1] = biological target: T1, Acetylcholine-binding protein (Lymnaea stagnalis, UniProt P58154)
Description: Displacement of [3H]epibatidine from Lymnaea stagnalis His6-AChBP expressed in Bac-to-Bac baculovirus expression system

[2] = biological target: T1, Acetylcholine-binding protein; remark: listed apart in the source
Description: Binding affinity to Lymnaea stagnalis His6-AChBP expressed in Bac-to-Bac baculovirus expression system by surface plasmon resonance biosensor assay

[3] = biological target: Neuronal acetylcholine receptor subunit alpha-7 (Homo sapiens, UniProt P36544); test: biochemical
Neuronal acetylcholine receptor subunit alpha-7, sequence (P36544 whole entry): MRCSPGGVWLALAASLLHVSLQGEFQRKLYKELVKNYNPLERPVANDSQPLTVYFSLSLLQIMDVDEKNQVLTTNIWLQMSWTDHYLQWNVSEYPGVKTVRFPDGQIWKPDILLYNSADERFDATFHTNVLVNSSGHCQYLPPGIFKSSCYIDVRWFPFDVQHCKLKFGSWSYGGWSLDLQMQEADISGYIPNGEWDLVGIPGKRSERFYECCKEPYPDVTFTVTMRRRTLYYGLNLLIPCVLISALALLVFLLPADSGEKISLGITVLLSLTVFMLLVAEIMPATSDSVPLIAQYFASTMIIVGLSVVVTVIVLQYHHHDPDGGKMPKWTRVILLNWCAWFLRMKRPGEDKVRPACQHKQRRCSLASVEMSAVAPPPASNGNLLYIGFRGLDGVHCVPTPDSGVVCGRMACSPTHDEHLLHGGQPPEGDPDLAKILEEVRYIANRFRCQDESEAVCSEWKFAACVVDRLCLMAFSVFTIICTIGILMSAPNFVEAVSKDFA
Description: Displacement of [3H]-MLA from human alpha7 nAChR expressed in human SH-SY5Y cells

T1 sequence (P58154 whole entry): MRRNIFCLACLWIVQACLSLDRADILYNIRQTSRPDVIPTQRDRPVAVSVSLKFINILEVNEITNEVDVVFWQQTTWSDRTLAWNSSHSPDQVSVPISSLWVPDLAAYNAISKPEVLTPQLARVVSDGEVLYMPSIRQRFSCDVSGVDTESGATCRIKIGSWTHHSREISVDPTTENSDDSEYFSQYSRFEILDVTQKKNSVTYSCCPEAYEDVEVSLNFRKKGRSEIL

SMILES	Ki [1]	Kd [2]	Ki [3]
O=C(Nc1ccccc1)OCCCc1cccnc1	282000 nM	741000 nM	14500 nM
O=C(Nc1ccc(Br)cc1)OCCCc1cccnc1	> 10000 nM	50100 nM	6920 nM
O=C(Nc1ccccc1)O[C@H]1CN2CCC1CC2	7940 nM	29500 nM	
O=C(Nc1ccc(Br)cc1)O[C@H]1CN2CCC1CC2	3020 nM	4470 nM	38.9 nM
O=C(Nc1ccccc1)N[C@H]1CN2CCC1CC2	5500 nM	18600 nM	110 nM
O=C(Nc1ccc(Br)cc1)N[C@H]1CN2CCC1CC2	5130 nM	4900 nM	43.7 nM
O[C@@H]1C2CCN(CC2)[C@H]1Cc1cccnc1	251 nM	316 nM	3310 nM
N[C@@H]1C2CCN(CC2)[C@H]1Cc1cccnc1	468 nM	550 nM	2290 nM
N[C@H]1CN2CCC1CC2	110000 nM	74100 nM	6310 nM
NCCc1cccnc1	93300 nM	148000 nM	8510 nM
O=C(N[C@@H]1C2CCN(CC2)[C@H]1Cc1cccnc1)c1ccccc1	240 nM	219 nM	
O=C(N[C@@H]1C2CCN(CC2)[C@H]1Cc1cccnc1)c1cccs1	148 nM	240 nM	43.7 nM
O=C(Nc1ccccc1)O[C@@H]1C2CCN(CC2)[C@H]1Cc1cccnc1	61.7 nM	100 nM	18.6 nM
O=C(Nc1ccccc1)N[C@@H]1C2CCN(CC2)[C@H]1Cc1cccnc1	562 nM	871 nM	28.8 nM
O=C(Nc1ccc(Br)cc1)N[C@@H]1C2CCN(CC2)[C@H]1Cc1cccnc1	708 nM	437 nM	25.7 nM
O=C(N[C@@H]1C2CCN(CC2)[C@H]1Cc1cccnc1)Oc1ccccc1	501 nM	347 nM	37.2 nM
CN(C)CCc1cccnc1	3160 nM	6030 nM	3160 nM
O=C(N[C@@H]1C2CCN(CC2)[C@H]1Cc1cccnc1)c1cc2ccccc2o1 [BRADANICLINE]	14.5 nM	20 nM	
O=C(N[C@H]1CN2CCC1CC2)c1ccc(Cl)cc1 [PNU-282987]	2090 nM	3630 nM	24.5 nM
